The source of these data is ChEMBL document CHEMBL1201862, “PubChem BioAssay data set” (2004).

Structures are written as SMILES.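 The compound was tested at five concentrations on cells cultured in 96-well plates, with a 48-hour exposure period. At the GI50, growth is halved.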 Active and inactive are the calls of the source. Cut-off read from the data, not from the text of the source: active = GI50 up to about 1.1 µM and inactive = higher. Some results are limits rather than exact numbers.

Common to all, as to experiment: NCI anticancer screen, dose series, 48 h
The subject of experiment [1] is CCRF-CEM.
Experiment [2] has as its system OVCAR-3.
The test system of experiment [3] is MOLT-4.
Experiment [4] deals with MDA-N.
The subject of experiment [5] is OVCAR-8.
The test system of experiment [6] is TK-10.
Experiment [7] deals with HCT-116.
For experiment [8], the system named is A498.
Experiment [9] relates to SN12C.
Experiment [10] deals with ACHN.
The test system of experiment [11] is MDA-MB-231.
Experiment [12] deals with SW-620.
In experiment [13] the test system is SNB-19.
For experiment [14], the system named is MDA-MB-435.
The subject of experiment [15] is HOP-92.
In experiment [16] the test system is RPMI-8226.
Experiment [17] concerns SF-539.
Experiment [18] deals with KM12.
Experiment [19] concerns COLO 205.
The test system of experiment [20] is SK-MEL-28.

As for `Cc1ccc(NC(=O)CC(=O)N2N=C(N(C)c3ccccc3)CC2c2ccccc2)cc1` (stereo not drawn), the GI50 was > 100 µM (inactive) in [1]; > 100 µM (inactive) in experiment [2]; > 100 µM (inactive) in [3]; > 100 µM (inactive) in experiment [4]; 58.7 µM (inactive) in experiment [5]; > 100 µM (inactive) in [6]. The GI50 in experiment [7], in experiment [8], in experiment [9], in [10], in experiment [11] and in experiment [12] was > 100 µM (inactive) in each case. The GI50 in [13], in [14], in [15], in experiment [16], in [17] and in experiment [18] was > 100 µM (inactive) throughout. The GI50 in experiment [19] and in experiment [20] was > 100 µM (inactive) each time.

`CC(=O)Oc1c2c(c(CC=C(C)C)c3c1C(=O)C1=C[C@@H]4CC5C(C)(C)OC(C/C=C(/C)C(=O)O)(C4=O)[C@@]15O3)OC(C)(CCC=C(C)C)C=C2` (stereo partly drawn): the GI50 in experiment [1] was 0.101 µM (active); in experiment [2], 0.308 µM (active); in experiment [3] it was 0.0769 µM (active); in [4] it was 0.16 µM (active); in experiment [5], 0.184 µM (active); in experiment [6], 0.134 µM (active). For the same compound, the GI50 in experiment [7] is 0.149 µM (active); in experiment [8] it was 0.65 µM (active); in experiment [9] it was 0.181 µM (active); in experiment [10] it was 0.102 µM (active); in [11], 0.227 µM (active); in experiment [12] it was 0.091 µM (active). Besides, the GI50 in experiment [13] is 0.269 µM (active); in [14], 0.161 µM (active); in [15], 0.237 µM (active); in experiment [16], 0.184 µM (active); in [17], 0.0986 µM (active); in experiment [18], 0.188 µM (active). The GI50 was 0.195 µM (active) in experiment [19] and 0.188 µM (active) in [20].

For `O=C(Cc1ccccc1F)NC1=C(Cl)C(=O)c2ccccc2C1=O`, the GI50 was 0.428 µM (active) in experiment [1]; 0.621 µM (active) in experiment [2]; 1.06 µM (active) in experiment [3]; 2.78 µM (inactive) in experiment [4]; 2.16 µM (inactive) in experiment [5]; 2.4 µM (inactive) in experiment [6]. Also, the GI50 in [7] was 0.459 µM (active); in experiment [8] it was 4.69 µM (inactive); in experiment [9], 3.18 µM (inactive); in experiment [10], 0.543 µM (active); in [11] it was 2.69 µM (inactive); in experiment [12], 0.721 µM (active). The GI50 in [13] was 2.84 µM (inactive); in experiment [14], 2.77 µM (inactive); in experiment [15] it was 0.887 µM (active); in [16] it was 0.436 µM (active); in experiment [17] it was 0.333 µM (active); in experiment [18], 0.524 µM (active). The GI50 in [19] is 3.23 µM (inactive); in experiment [20], 0.822 µM (active).

Take `c1nnc(NCNc2nncs2)s1`: the GI50 in [1] is 61.1 µM (inactive); in [2], 21.5 µM (inactive); in experiment [3] it was 29.6 µM (inactive); in experiment [4], 35.2 µM (inactive); in experiment [5], 69.5 µM (inactive); in experiment [6], 86.9 µM (inactive). Moreover, the GI50 in experiment [7] is 33.7 µM (inactive); in experiment [8], 4.16 µM (inactive); in [9], 30.9 µM (inactive); in experiment [10] it was 29.4 µM (inactive); in experiment [11], 30.7 µM (inactive); in [12] it was 45.8 µM (inactive). Also, the GI50 is > 100 µM (inactive) in [13]; 28.6 µM (inactive) in experiment [14]; > 100 µM (inactive) in [15]; 72.6 µM (inactive) in experiment [16]; 31 µM (inactive) in experiment [17]; 50.1 µM (inactive) in experiment [18]. The GI50 in experiment [19] is 56.1 µM (inactive); in experiment [20] it was 64.4 µM (inactive).

Turning to `CCOc1cc(NC(C)=O)ccc1C(=O)N/N=C/c1ccco1`, the GI50 in experiment [1] is 39.3 µM (inactive); in [2] it was > 100 µM (inactive); in experiment [3], 20.9 µM (inactive); in experiment [4], > 100 µM (inactive); in experiment [5], > 100 µM (inactive); in experiment [6] it was > 100 µM (inactive). The GI50 is > 100 µM (inactive) in experiment [7]; 62.8 µM (inactive) in experiment [8]; > 100 µM (inactive) in [9]; 35.6 µM (inactive) in experiment [10]; > 100 µM (inactive) in experiment [11]; > 100 µM (inactive) in [12]. In addition, the GI50 is > 100 µM (inactive) in [14]; 11.8 µM (inactive) in [15]; 78.3 µM (inactive) in [16]; 89.7 µM (inactive) in experiment [17]; > 100 µM (inactive) in experiment [18]; 44.6 µM (inactive) in experiment [19]. Further, the GI50 in experiment [20] was > 100 µM (inactive).

In the case of `Cc1c(O)nc(/C=C/C(=O)O)nc1C(=O)O`, the GI50 in [1], in [2], in experiment [3], in [4], in [5] and in experiment [6] was > 100 µM (inactive) in each case. Moreover, the GI50 in experiment [7], in experiment [8], in experiment [9], in [10], in experiment [11] and in experiment [12] was > 100 µM (inactive) in each case. Also, the GI50 in [13], in [14], in experiment [15], in experiment [16], in [17] and in experiment [18] was > 100 µM (inactive) throughout. Besides, the GI50 in experiment [19] and in experiment [20] was > 100 µM (inactive) each time.

`C(=N\c1nc2cc3sc(/N=C/c4ccccc4)nc3cc2s1)/c1ccccc1`: the GI50 in [1] was 2.49 µM (inactive); in [2] it was > 85.3 µM (inactive); in experiment [3] it was 9.75 µM (inactive); in [4], > 100 µM (inactive); in experiment [5], > 66.2 µM (inactive); in experiment [6] it was > 50.6 µM (inactive). The GI50 in [7] is 44 µM (inactive); in [8], > 95.7 µM (inactive); in experiment [9], 69.3 µM (inactive); in experiment [10], 55.8 µM (inactive); in experiment [11], > 95.3 µM (inactive); in [12] it was 37.4 µM (inactive). Also, the GI50 in experiment [13] was > 100 µM (inactive); in experiment [14], > 100 µM (inactive); in [15] it was > 76.9 µM (inactive); in experiment [16], 29.7 µM (inactive); in experiment [17], 32.5 µM (inactive); in [18], > 100 µM (inactive). Moreover, the results for the GI50 in experiment [19] and in experiment [20] were 4.01 µM (inactive) and > 100 µM (inactive), respectively.

In the case of `O=S(=O)(O)c1cc(/N=N/c2cccc3ccccc23)c(O)c2ncccc12`, the GI50 in experiment [1] is 24.7 µM (inactive); in experiment [2], 22.5 µM (inactive); in experiment [3] it was 26.9 µM (inactive); in experiment [4], 58.3 µM (inactive); in [5] it was > 100 µM (inactive); in experiment [6], > 100 µM (inactive). Besides, the GI50 in [7] is 34.9 µM (inactive); in experiment [8], 31.8 µM (inactive); in experiment [9] it was 60 µM (inactive); in [10], 44 µM (inactive); in [11], > 100 µM (inactive); in [12], 59.8 µM (inactive). Further, the GI50 was > 100 µM (inactive) in experiment [13]; > 100 µM (inactive) in experiment [14]; > 100 µM (inactive) in experiment [15]; 41.2 µM (inactive) in experiment [16]; 56.1 µM (inactive) in [17]; 80.2 µM (inactive) in experiment [18]. For the same compound, the figures for the GI50 in experiment [19] and in experiment [20] were 33.4 µM (inactive) and > 100 µM (inactive), respectively.

For `COC(=O)[C@@H]1[C@H](O)CC[C@H]2[C@@]1(C)CC[C@@H](C)[C@]2(COC(C)=O)CC(=O)c1ccoc1`, the GI50 in experiment [1] is 16.7 µM (inactive); in experiment [2], > 50 µM (inactive); in experiment [3], 28.6 µM (inactive); in [4] it was > 50 µM (inactive); in experiment [5] it was > 50 µM (inactive); in [6] it was > 50 µM (inactive). Moreover, the GI50 in experiment [7], in [8], in [9], in experiment [10], in experiment [11] and in [12] was > 50 µM (inactive) in each case. In addition, the GI50 is > 50 µM (inactive) in experiment [13]; > 50 µM (inactive) in [14]; > 50 µM (inactive) in experiment [15]; 26.1 µM (inactive) in experiment [16]; > 50 µM (inactive) in experiment [17]; > 50 µM (inactive) in experiment [18]. The GI50 in [19] and in experiment [20] was > 50 µM (inactive) throughout.

Take `O=C(Nc1ccc2ccccc2c1)Nn1cnnc1`: the GI50 in experiment [1], in experiment [2], in experiment [3], in [4], in [5] and in [6] was > 100 µM (inactive) each time. Besides, the GI50 in experiment [7], in experiment [8], in experiment [10], in experiment [11], in experiment [12] and in experiment [13] was > 100 µM (inactive) in each case. Besides, the GI50 in [14], in [15], in experiment [16], in experiment [17], in experiment [18] and in experiment [19] was > 100 µM (inactive) each time. In addition, in experiment [20], the GI50 was > 100 µM (inactive).
